Data from patent publication US12655116B2, “Substituted isophthalic acid diamides” (Bayer Aktiengesellschaft, priority 2020, dated 2026).

Tests used:
[1] = system: AVEFA; assay: Pre-emergence herbicidal action against AVEFA; format: in vivo, Avena fatua; details: Avena fatua, 504 h, pre-emergence
How it was run: (§1)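 Seeds sown in sandy loam, soil-covered; compound sprayed on soil surface pre-emergence. Application: WP/EC, 600–800 l/ha, 0.2% wetting agent. Readout: visual % damage at 3 weeks.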

[2] = system: VERPE; assay: Post-emergence herbicidal action against VERPE; format: in vivo, Veronica persica; details: Veronica persica, 504 h
How it was run: (§2)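 Percent herbicidal action is rated by eye about 3 weeks after treatment against untreated controls, where 100% means dead plants and 0% means like controls. Plants in sandy loam are sprayed on green parts at the one-leaf stage with aqueous WP or EC preparations at 600 to 800 l/ha plus 0.2% wetting agent.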

[3] = system: ALOMY; assay: Post-emergence herbicidal action against ALOMY; format: in vivo, Alopecurus myosuroides; details: Alopecurus myosuroides, 504 h, visual assessment about 3 weeks after treatment vs untreated controls; for pest or weed control at 20 g/ha: dosage 20 g/ha
How it was run: as §2

[4] = system: AMARE; assay: Pre-emergence herbicidal action against AMARE; format: in vivo, Amaranthus retroflexus; details: Amaranthus retroflexus, 504 h, 100% = plants have died, 0% = like control plants; for pest or weed control at 20 g/ha / pest or weed control at 80 g/ha: scored visually after 3 weeks vs untreated controls
How it was run: as §1

[5] = system: AMARE; assay: Post-emergence herbicidal action against AMARE; format: in vivo, Amaranthus retroflexus; details: Amaranthus retroflexus, 504 h, visual assessment about 3 weeks after treatment, 100% = plants have died, 0% = like control plants
How it was run: as §2

[6] = system: ECHCG; assay: Pre-emergence herbicidal action against ECHCG; format: in vivo, Echinochloa crus-galli; details: Echinochloa crus-galli, 504 h
How it was run: as §1

[7] = system: POLCO; assay: Post-emergence herbicidal action against POLCO; format: in vivo, Polygonum convolvulus; details: Fallopia convolvulus, 504 h, dosage 20 g/ha
How it was run: as §2

[8] = system: POLCO; assay: Pre-emergence herbicidal action against POLCO; format: in vivo, Polygonum convolvulus; details: Fallopia convolvulus, 504 h
How it was run: as §1

[9] = system: VIOTR; assay: Pre-emergence herbicidal action against VIOTR; format: in vivo, Viola tricolor; details: Viola tricolor, 504 h; for pest or weed control at 80 g/ha: dosage 80 g/ha
How it was run: as §1

[10] = system: MATIN; assay: Post-emergence herbicidal action against MATIN; format: in vivo, Matricaria inodora; details: Tripleurospermum inodorum, 504 h, dosage 20 g/ha
How it was run: as §2

[11] = system: AVEFA; assay: Post-emergence herbicidal action against AVEFA; format: in vivo, Avena fatua; details: Avena fatua, 504 h, visual assessment about 3 weeks after treatment, 100% = plants have died, 0% = like control plants
How it was run: as §2

[12] = system: ALOMY; assay: Pre-emergence herbicidal action against ALOMY; format: in vivo, Alopecurus myosuroides; details: Alopecurus myosuroides, 504 h, pre-emergence; for pest or weed control at 80 g/ha: scored visually after 3 weeks vs untreated controls (100% = plants have died, 0% = like control plants)
How it was run: as §1

[13] = system: HORMU; assay: Post-emergence herbicidal action against HORMU; format: in vivo, Hordeum murinum; details: Hordeum murinum, 504 h
How it was run: as §2

[14] = system: MATIN; assay: Pre-emergence herbicidal action against MATIN; format: in vivo, Matricaria inodora; details: Tripleurospermum inodorum, 504 h; for pest or weed control at 80 g/ha: dosage 80 g/ha
How it was run: as §1

[15] = system: HORMU; assay: Pre-emergence herbicidal action against HORMU; format: in vivo, Hordeum murinum; details: Hordeum murinum, 504 h, pre-emergence
How it was run: as §1

[16] = system: SETVI; assay: Pre-emergence herbicidal action against SETVI; format: in vivo, Setaria viridis; details: Setaria viridis, 504 h; for pest or weed control at 80 g/ha: dosage 80 g/ha
How it was run: as §1

[17] = system: VERPE; assay: Pre-emergence herbicidal action against VERPE; format: in vivo, Veronica persica; details: Veronica persica, 504 h; for pest or weed control at 80 g/ha: dosage 80 g/ha
How it was run: as §1

[18] = system: ECHCG; assay: Post-emergence herbicidal action against ECHCG; format: in vivo, Echinochloa crus-galli; details: Echinochloa crus-galli, 504 h; for pest or weed control at 20 g/ha: dosage 20 g/ha
How it was run: as §2

[19] = system: VIOTR; assay: Post-emergence herbicidal action against VIOTR; format: in vivo, Viola tricolor; details: Viola tricolor, 504 h
How it was run: as §2

[20] = system: STEME; assay: Pre-emergence herbicidal action against STEME; format: in vivo, Stellaria media; details: Stellaria media, 504 h; for pest or weed control at 80 g/ha: dosage 80 g/ha
How it was run: as §1

[21] = system: SETVI; assay: Post-emergence herbicidal action against SETVI; format: in vivo, Setaria viridis; details: Setaria viridis, 504 h; for pest or weed control at 20 g/ha: dosage 20 g/ha
How it was run: as §2

[22] = system: STEME; assay: Post-emergence herbicidal action against STEME; format: in vivo, Stellaria media; details: Stellaria media, 504 h
How it was run: as §2

[23] = system: LOLRI; assay: Post-emergence herbicidal action against LOLRI; format: in vivo, Lolium rigidum; details: Lolium rigidum, 504 h, dosage 80 g/ha
How it was run: as §2

[24] = 20 g/ha, scored visually after 3 weeks, 100% = plants have died, 0% = like control plants
[25] = 320 g/ha, scored visually after 3 weeks, 100% = plants have died, 0% = like control plants

CCn1nnnc1NC(=O)c1ccc(Cl)c(C(=O)NC2CC2)c1Cl [Example 2-173]
pest or weed control at 80 g/ha [1]: 100%
pest or weed control at 20 g/ha [1, 24]: 90%
pest or weed control at 20 g/ha [2]: 80%
pest or weed control at 20 g/ha [3]: 100%
pest or weed control at 20 g/ha [4]: 100%
pest or weed control at 80 g/ha [4]: 100%
pest or weed control at 20 g/ha [5]: 100%
pest or weed control at 80 g/ha [6]: 100%
pest or weed control at 20 g/ha [7]: 90%
pest or weed control at 20 g/ha ([8]; dosage 20 g/ha): 90%
pest or weed control at 80 g/ha ([8]; dosage 80 g/ha): 100%
pest or weed control at 80 g/ha [9]: 100%
pest or weed control at 20 g/ha [10]: 100%
pest or weed control at 20 g/ha [11]: 100%
pest or weed control at 80 g/ha [12]: 100%
pest or weed control at 20 g/ha [12, 24]: 100%
pest or weed control at 20 g/ha ([13]; dosage 20 g/ha): 100%
pest or weed control at 20 g/ha ([14]; dosage 20 g/ha): 100%
pest or weed control at 80 g/ha [14]: 100%
pest or weed control at 80 g/ha [15]: 100%
pest or weed control at 80 g/ha [16]: 100%
pest or weed control at 80 g/ha [17]: 80%
pest or weed control at 5 g/ha ([18]; dosage 5 g/ha): 80%
pest or weed control at 20 g/ha [18]: 90%
pest or weed control at 20 g/ha [19]: 100%
pest or weed control at 20 g/ha ([20]; dosage 20 g/ha): 100%
pest or weed control at 80 g/ha [20]: 100%
pest or weed control at 5 g/ha ([21]; dosage 5 g/ha): 100%
pest or weed control at 20 g/ha [21]: 100%
pest or weed control at 20 g/ha [22]: 100%
pest or weed control at 5 g/ha ([22]; dosage 5 g/ha): 100%

CCn1nnnc1NC(=O)c1ccc(C(F)(F)F)c(C(N)=O)c1Cl [Example 2-338]
pest or weed control at 80 g/ha [1]: 90%
pest or weed control at 320 g/ha [1, 25]: 100%
pest or weed control at 80 g/ha [23]: 90%
pest or weed control at 20 g/ha [2]: 90%
pest or weed control at 80 g/ha ([2]; 80 g/ha): 100%
pest or weed control at 20 g/ha [3]: 80%
pest or weed control at 80 g/ha ([3]; dosage 80 g/ha): 100%
pest or weed control at 20 g/ha [4]: 90%
pest or weed control at 80 g/ha [4]: 100%
pest or weed control at 320 g/ha ([4]; 320 g/ha, scored visually after 3 weeks): 100%
pest or weed control at 20 g/ha [5]: 100%
pest or weed control at 80 g/ha ([5]; 80 g/ha): 100%
pest or weed control at 80 g/ha [6]: 90%
pest or weed control at 320 g/ha ([6]; 320 g/ha): 100%
pest or weed control at 320 g/ha ([8]; dosage 320 g/ha): 90%
pest or weed control at 80 g/ha [9]: 100%
pest or weed control at 320 g/ha ([9]; dosage 320 g/ha): 100%
pest or weed control at 20 g/ha [11]: 80%
pest or weed control at 80 g/ha ([11]; 80 g/ha): 100%
pest or weed control at 80 g/ha [12]: 90%
pest or weed control at 320 g/ha [12, 25]: 100%
pest or weed control at 80 g/ha ([13]; dosage 80 g/ha): 100%
pest or weed control at 80 g/ha [14]: 90%
pest or weed control at 320 g/ha ([14]; dosage 320 g/ha): 100%
pest or weed control at 80 g/ha [15]: 80%
pest or weed control at 320 g/ha ([15]; 320 g/ha): 100%
pest or weed control at 80 g/ha [16]: 90%
pest or weed control at 320 g/ha ([16]; dosage 320 g/ha): 100%
pest or weed control at 80 g/ha [17]: 100%
pest or weed control at 320 g/ha ([17]; dosage 320 g/ha): 100%
pest or weed control at 20 g/ha [18]: 80%
pest or weed control at 80 g/ha ([18]; dosage 80 g/ha): 100%
pest or weed control at 20 g/ha [19]: 100%
pest or weed control at 80 g/ha ([19]; 80 g/ha): 100%
pest or weed control at 80 g/ha [20]: 90%
pest or weed control at 320 g/ha ([20]; dosage 320 g/ha): 100%
pest or weed control at 20 g/ha [21]: 80%
pest or weed control at 80 g/ha ([21]; dosage 80 g/ha): 100%
pest or weed control at 20 g/ha [22]: 90%
pest or weed control at 80 g/ha ([22]; 80 g/ha): 100%
